Measured values taken from publication PMC7887271, “Fast acting allosteric phosphofructokinase inhibitors block trypanosome glycolysis and cure acute African trypanosomiasis in mice” (Nature Communications, 2021).
Where two headings read alike, the source gives them in different places.

Assays:
[1] = Tolerance studies and plasma levels after multiple oral dosing; type: in vivo; conditions: for Experimental plasma concentration measured @2hr after final dose: 2 h intervals; for tolerance of high doses: mice, oral
Method: All efficacy studies were carried out using CD-1 mice in accordance with the United Kingdom Animals (Scientific Procedures) Act (1986) under Home Office regulations. Studies were performed in SPF facilities at the University of Edinburgh under licence PPL 70/8102 and at the University of Glasgow under PPL 60/4442. The experiments were approved by the local ethics committees of the respective universities. Dosing regimens used in efficacy studies were first tested for tolerance in female CD-1 mice (University of Edinburgh; 6–8 weeks old). Animals were dosed orally by gavage with CTCB compounds following the dosing regimen for each individual experiment (n = 5; Supplementary Methods 6.2).
Dosing regimens used in efficacy studies were first tested for tolerance in female CD-1 mice (University of Edinburgh; 6-8 weeks old). Animals were dosed orally by gavage with CTCB compounds following the dosing regimen for each individual experiment (n=5) as indicated. Compounds were administered in a mixture containing Cremophor EL: EtOH: D-PBS (30:10:60 v/v). Animals were monitored for up to 8 hours post-dosing. On the final day of dosing, 2 hours after the final dose, whole blood was harvested from three mice via cardiac puncture, under gaseous isoflurane anaesthesia, to obtain plasma for analyses. The remaining two mice were monitored for several days post dosing. To avoid coagulation, 100 μl of 2% sodium citrate was utilised in the syringe during the procedure and blood samples subsequently transferred to heparin coated microtubules. Blood samples were centrifuged at 800 x g for 10 minutes at room temperature. The supernatant containing the plasma was transferred to a fresh tube for determination of compound levels and further PK analysis.

[2] = system: bloodstream form of T. brucei strain Lister 427; assay: T. b. brucei 427 growth inhibition assay (LILiT, Alamar Blue); type: cell-based; conditions: Trypanosoma brucei
Method: The ‘in vitro’ parasite killing assay used the BSF of the non-human pathogenic subspecies T. b. brucei, strain Lister 427, cultured in HMI-9 medium containing 10% foetal bovine serum. A second cell line, T. b. brucei GVR35-Luc2 which constitutively expresses firefly luciferase was grown in Modified HMI-9 plus 20% foetal calf serum supplemented with 20% Serum Plus (Sigma) and 0.15 μg mL^−1 puromycin. Both strains of trypanosomes were cultured in T-25 vented cap flasks at 37 °C and 5% CO2.
The ‘in vitro’ parasite killing assay used the bloodstream-form of the non-human pathogenic subspecies T. b. brucei, strain Lister 427 (a gift from Professor Keith Matthews) which was cultured in HMI-9 medium containing 10% fetal bovine serum (FBS). A second cell line, T. b. brucei GVR35-Luc2 which constitutively expresses firefly luciferase (5) was grown in Modified HMI-9 plus 20% fetal calf serum (FCS) supplemented with 20% Serum Plus (Sigma) and 0.15 μg/ml puromycin as described previously (5). Both strains of trypanosomes were cultured in T-25 vented cap flasks at 37 °C and 5% CO2.
Growth inhibition tests of bloodstream-form T. b. brucei Lister 427 were carried out using the LILiT (long incubation low inoculation test) method (6). The parasites were cultured in complete HMI-9 medium containing 10% FBS in 96-well plates (Greiner Inc.) with approximately 2500 trypanosomes per well. A 3-fold dilution series (in the range from 45 µM – 0.020 µM) of the inhibitor compounds were prepared in the plate; the maximal concentration of DMSO was 0.45%. After 72 hours of incubation at 37 °C and 5% CO2, 50 µl Alamar Blue (0.2% diluted with Dulbecco’s-phosphate buffered saline (D-PBS, Sigma) was added to each well and plates were incubated at 37 °C and 5% CO2 for 4 hours. Fluorescence was read on the BMG multiplate reader using an excitation wavelength of 530 nm and an emission wavelength of 590 nm.

HepG2 cells = assay: HepG2 cytotoxicity assay; type: cell-based, human; conditions: for Selectivity: EC50 HepG2 divided by EC50 T. b. brucei parasite killing; for EC50: Homo sapiens, HepG2, 72 h, CellTitreGlo
Method: A HepG2 cytotoxicity assay was used to determine a cellular selectivity index. HepG2 cells were seeded into 96-well plates in EMEM medium. Compounds were assessed for their effect upon cellular viability (Supplementary Methods 5.1). Inhibition of CYP450 was determined using kits from BD Biosciences (Supplementary Methods 5.2). Metabolic stability was determined using mouse […] tested at a single concentration of 5 µM. Plasma protein binding was determined using mouse and human plasma at a single concentration of 10 µM (Supplementary Methods 5.4). All PK studies in mice were carried out by Pharmidex (Supplementary Methods 6.1).
To determine a cellular selectivity index, a HepG2 Cytotoxicity Assay was used. HepG2 cells (a human hepatocyte carcinoma cell line) were seeded into 96 well plates in EMEM media. Compounds were assessed for their effect upon cellular viability (6 point dose response curves). After 72h the numbers of viable cells were detected using Promega CellTitreGlo reagent to measure ATP using the luciferase/luciferin detection system. The selectivity index is calculated as the EC50 in the HepG2 assay divided by the EC50 determined in the T. b. brucei parasite killing assay.

[3] = 72 h, Alamar Blue, read-out: EC50 (µM) in vitro parasite killing of bloodstream form T. brucei Lister 427 (Tbb EC50)
[4] = Glycerol 0.75 mM, read-out: EC50
[5] = Glycerol 5.0 mM, read-out: EC50

SMILES	Experimental plasma concentration measured @2hr after final dose ([1]; 3 x 50 mg/kg oral) [µM]	Experimental plasma concentration measured @2hr after final dose ([1]; 3 x 100 mg/kg oral) [µM]	tolerance of high doses [1]	plasma levels ([1]; three doses at 100 mg kg^−1 given on two consecutive days) [µM]	autopsied livers ([1]; up to 300 mg kg^−1 per day)	apparent toxicity ([1]; up to 300 mg kg^−1 per day, cumulative dosing tolerance studies)	EC50 [2, 3] [µM]	EC50 ([2]; Glycerol 0 mM, read-out: EC50) [µM]	EC50 [2, 4] [µM]	EC50 [2, 5] [µM]	EC50 ([2]; Glycerol […], read-out: EC50) [µM]	Selectivity (HepG2 cells)	EC50 (HepG2 cells) [µM]	EC50 ([2]; 72 h, read-out: EC50 (µM) in vitro parasite killing of bloodstream form T. brucei Lister 427 (Tbb EC50), 72 h, Alamar Blue) [µM]
CN(C)CCn1ccc2c(ccn2Cc2ccc(Cl)c(Cl)c2)c1=O [CTCB-405, 1-[(3,4-Dichlorophenyl)methyl]-5-[2-(dimethylamino)ethyl] pyrrolo[3,2-c]pyridin-4-one]	6.8 ± 2.1	9.8 ± 3.1	well tolerated	9.8	appeared normal	no apparent toxicity	0.37 ± 0.04	0.27	0.33	0.45	0.32	56	20.8	–
CNCCn1ccc2c(ccn2Cc2ccc(Cl)c(Cl)c2)c1=O [CTCB-435]	–	–	–	–	–	–	–	–	–	–	–	–	–	0.25 ± 0.05
CN(C)CCn1ccc2c(ccn2Cc2ccc(Cl)c(Br)c2)c1=O [CTCB-470, 1-[(3-Bromo-4-chlorophenyl)methyl]-5-[2-(dimethylamino)ethyl] pyrrolo[3,2-c]pyridin-4-one]	–	–	well tolerated	–	–	–	0.31 ± 0.03	0.23	0.26	–	0.26	39	12.3	–
CN(C)CCn1ccc2c(ccn2Cc2ccc(F)c(Br)c2)c1=O [CTCB-508, 1-[(3-Bromo-4-fluorophenyl)methyl]-5-[2-(dimethylamino)ethyl] pyrrolo[3,2-c]pyridin-4-one]	–	–	well tolerated	–	–	–	0.3 ± 0.02	–	0.31	0.44	0.34	111	33.4	–
